Measurements published in ChEMBL document CHEMBL1124290, “6- and 8-hydroxy-3,4-dihydro-3-(dipropylamino)-2H-1-benzopyrans. Dopamine agonists with autoreceptor selectivity” (J Med Chem, 1988).

Key:
[1] = test system: Mus musculus; assay: Dose required for inhibition of locomotor activity in mice (sc)
[2] = test system: Rattus norvegicus; assay: Dose (ip) giving half-maximal reversal of the gamma-butyrolactone-induced increase in DOPA formation of rat striatum; assay type: functional
[3] = test system: Mus musculus; assay: Dose required for reversal of reserpine-induced depression in mice (sc)
[4] = Ratio of ED50 values for the inhibition of locomotor activity to reversal of reserpine-induced depression; assay type: functional

Compound: CN1CCc2cccc3c2[C@H]1Cc1ccc(O)c(O)c1-3 [APOMORPHINE]
- ED50 [1]: 0.021 mg/kg
- ED50 [2]: 0.04 mg/kg
- ED50 [3]: 0.096 mg/kg

Compound: CCCN(CCC)C1COc2ccc(O)cc2C1 (stereo unspecified)
- ED50 [1]: 0.17 mg/kg
- Ratio [4]: 79
- ED50 [2]: 0.85 mg/kg
- ED50 [3]: 13.4 mg/kg

Compound: CCCN(CCC)C1COc2c(O)cccc2C1 (stereo unspecified)
- ED50 [1]: 0.013 mg/kg
- Ratio [4]: 304
- ED50 [2]: 0.05 mg/kg
- ED50 [3]: 3.95 mg/kg
